The target in this assay is Geranylgeranyl transferase type I (Homo sapiens, UniProt P49354+P53609). The assay is described as follows: Inhibition of recombinant mammalian Geranylgeranyl transferase type I expressed in baculovirus.

The term IC50 denotes the midpoint of a concentration-inhibition curve. Turning to `CC(C)=CCC/C(C)=C/CC/C(C)=C/CC/C(C)=C\COP(=O)(O)OP(=O)(O)O`, the 50% inhibitory concentration (IC50) worked out at 100 nM.

As to `CC(C)=CCC/C(C)=C/CC/C(C)=C\CC/C(C)=C/COP(=O)(O)OP(=O)(O)O`, the IC50 is 340 nM.

Values taken from ChEMBL document CHEMBL1134716, “Synthesis and evaluation of GGPP geometric isomers: divergent substrate specificities of FTase and GGTase I” (Bioorg Med Chem Lett, 2001).
